Measurements as given in patent US20230123334A1, “AMINO LIPID COMPOUND, PREPARATION METHOD THEREFOR, AND APPLICATION THEREOF” (SHENZHEN SHENXIN BIOTECHNOLOGY CO., LTD., priority 2020, published 2023).

Assays:
HEK293 cells [1] = assay: Preliminary screening as DNA vectors, GFP transfection of HEK293 cells; assay type: cell-based; conditions: HEK293 cells; lipid/DOPE liposome with 75 ng plasmid DNA (psin-EGFP-IRES-Puro); number of cells expressing GFP divided by total number of nuclei (Hoechst)
Method in brief: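 HEK293 cells in DMEM/10% FBS transfected with 75 ng EGFP plasmid per well complexed with amino lipid/DOPE liposomes in pH 5.6 sodium acetate. Hoechst nuclear stain added 20-24 h post-transfection, then cells cultured another 20-24 h. Confocal imaging gives GFP-positive cells as % of total nuclei.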

HEK293 cells [2] = assay: Preliminary screening as mRNA vectors, EGFP mRNA transfection of HEK293 cells; assay type: cell-based; conditions: HEK293 cells, 96-well plates, EGFP mRNA 50 ng per well; percentage of GFP fluorescent cells relative to total number of cells (Hoechst)
Method in brief: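 HEK293 cells in DMEM plus 10% FBS transfected in 96-well format with 50 ng EGFP mRNA per well; Lipofectamine2000 served as positive control. Read-out is the percentage of GFP-fluorescent cells among total cells, counted by Hoechst nuclear stain.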

Compound | Absolute DNA transfection efficiency in HEK293 cells (HEK293 cells [1]) [%] | Absolute mRNA transfection efficiency in HEK293 cells (HEK293 cells [2]) [%]
CCCCCCCCNc1nc(NCCCCCCCC)nc(NCCN2CCOCC2)n1 [Compound N8N8D2] | 0.0 | 0.0
CCCCCCCCNc1nc(NCCCCCCCC)nc(NCCN2CCCC2)n1 [Compound N8N8D3] | 1.8 | 0.4
CCCCCCCCNc1nc(NCCCCCCCC)nc(NCCN2CCCCC2)n1 [Compound N8N8D4] | 0.0 | 0.2
CCCCCCCCNc1nc(NCCCCCCCC)nc(NCCN2CCN(C)CC2)n1 [Compound N8N8D5] | 0.0 | 0.0
CCCCCCCCNc1nc(NCCCCCCCC)nc(NCCCN(C)C)n1 [Compound N8N8D6] | 0.0 | 0.0
CCCCCCCCNc1nc(NCCCCCCCC)nc(NCCN(CC)CC)n1 [Compound N8N8D7] | 0.0 | 0.0
CCCCCCCCNc1nc(NCCCCCCCC)nc(NCCCN2CCOCC2)n1 [Compound N8N8D8] | 0.0 | 0.0
CCCCCCCCNc1nc(NCCCCCCCC)nc(NCCCN2CCN(C)CC2)n1 [Compound N8N8D9] | 0.7 | 0.0
CCCCCCCCNc1nc(NCCCCCCCC)nc(NCC2CCN(C)CC2)n1 [Compound N8N8D10] | 0.0 | 0.0
CCCCCCCCCNc1nc(NCCCCCCCC)nc(NCCN(C)C)n1 [Compound N8N9D1] | 0.0 | 0.8
CCCCCCCCCNc1nc(NCCCCCCCC)nc(NCCN2CCOCC2)n1 [Compound N8N9D2] | 0.0 | 0.3
CCCCCCCCCNc1nc(NCCCCCCCC)nc(NCCN2CCCC2)n1 [Compound N8N9D3] | 0.5 | 0.5
CCCCCCCCCNc1nc(NCCCCCCCC)nc(NCCN2CCCCC2)n1 [Compound N8N9D4] | 0.0 | 0.0
CCCCCCCCCNc1nc(NCCCCCCCC)nc(NCCN2CCN(C)CC2)n1 [Compound N8N9D5] | 0.0 | 0.0
CCCCCCCCCNc1nc(NCCCCCCCC)nc(NCCCN(C)C)n1 [Compound N8N9D6] | 0.4 | 0.0
CCCCCCCCCNc1nc(NCCCCCCCC)nc(NCCN(CC)CC)n1 [Compound N8N9D7] | 0.0 | 0.0
CCCCCCCCCNc1nc(NCCCCCCCC)nc(NCCCN2CCOCC2)n1 [Compound N8N9D8] | 0.0 | 0.0
CCCCCCCCCNc1nc(NCCCCCCCC)nc(NCCCN2CCN(C)CC2)n1 [Compound N8N9D9] | 0.0 | 0.0
CCCCCCCCCNc1nc(NCCCCCCCC)nc(NCC2CCN(C)CC2)n1 [Compound N8N9D10] | 0.5 | 0.2
CCCCCCCCCCCNc1nc(NCCCCCCCC)nc(NCCN(C)C)n1 [Compound N8N11D1] | 0.4 | 0.0
CCCCCCCCCCCNc1nc(NCCCCCCCC)nc(NCCN2CCOCC2)n1 [Compound N8N11D2] | 0.0 | 0.0
CCCCCCCCCCCNc1nc(NCCCCCCCC)nc(NCCN2CCCC2)n1 [Compound N8N11D3] | 3.6 | 4.2

Compound | Absolute DNA transfection efficiency in HEK293 cells (HEK293 cells [1]) [%] | Absolute mRNA transfection efficiency in HEK293 cells (HEK293 cells [2]) [%]
CCCCCCCCCCCNc1nc(NCCCCCCCC)nc(NCCN2CCCCC2)n1 [Compound N8N11D4] | 0.2 | 0.2
CCCCCCCCCCCNc1nc(NCCCCCCCC)nc(NCCN2CCN(C)CC2)n1 [Compound N8N11D5] | 0.2 | 0.4
CCCCCCCCCCCNc1nc(NCCCCCCCC)nc(NCCCN(C)C)n1 [Compound N8N11D6] | 0.3 | 0.1
CCCCCCCCCCCNc1nc(NCCCCCCCC)nc(NCCN(CC)CC)n1 [Compound N8N11D7] | 0.0 | 0.0
CCCCCCCCCCCNc1nc(NCCCCCCCC)nc(NCCCN2CCOCC2)n1 [Compound N8N11D8] | 0.0 | 0.1
CCCCCCCCCCCNc1nc(NCCCCCCCC)nc(NCCCN2CCN(C)CC2)n1 [Compound N8N11D9] | 0.0 | 0.0
CCCCCCCCCCCNc1nc(NCCCCCCCC)nc(NCC2CCN(C)CC2)n1 [Compound N8N11D10] | 0.3 | 0.2
CCCCCCCCCCCCNc1nc(NCCCCCCCC)nc(NCCN(C)C)n1 [Compound N8N12D1] | 0.6 | 0.5
CCCCCCCCCCCCNc1nc(NCCCCCCCC)nc(NCCN2CCOCC2)n1 [Compound N8N12D2] | 0.0 | 0.0
CCCCCCCCCCCCNc1nc(NCCCCCCCC)nc(NCCN2CCCC2)n1 [Compound N8N12D3] | 2.4 | 0.5
CCCCCCCCCCCCNc1nc(NCCCCCCCC)nc(NCCN2CCCCC2)n1 [Compound N8N12D4] | 0.0 | 0.0
CCCCCCCCCCCCNc1nc(NCCCCCCCC)nc(NCCN2CCN(C)CC2)n1 [Compound N8N12D5] | 0.6 | 0.9
CCCCCCCCCCCCNc1nc(NCCCCCCCC)nc(NCCCN(C)C)n1 [Compound N8N12D6] | 0.4 | 0.1
CCCCCCCCCCCCNc1nc(NCCCCCCCC)nc(NCCN(CC)CC)n1 [Compound N8N12D7] | 0.0 | 0.0
CCCCCCCCCCCCNc1nc(NCCCCCCCC)nc(NCCCN2CCOCC2)n1 [Compound N8N12D8] | 0.0 | 0.0
CCCCCCCCCCCCNc1nc(NCCCCCCCC)nc(NCCCN2CCN(C)CC2)n1 [Compound N8N12D9] | 0.0 | 0.0
CCCCCCCCCCCCNc1nc(NCCCCCCCC)nc(NCC2CCN(C)CC2)n1 [Compound N8N12D10] | 0.7 | 2.3
CCCCCCCCCCCCCNc1nc(NCCCCCCCC)nc(NCCN(C)C)n1 [Compound N8N13D1] | 2.2 | 0.0
CCCCCCCCCCCCCNc1nc(NCCCCCCCC)nc(NCCN2CCOCC2)n1 [Compound N8N13D2] | 0.0 | 0.1
CCCCCCCCCCCCCNc1nc(NCCCCCCCC)nc(NCCN2CCCC2)n1 [Compound N8N13D3] | 0.9 | 2.7
CCCCCCCCCCCCCNc1nc(NCCCCCCCC)nc(NCCN2CCCCC2)n1 [Compound N8N13D4] | 0.7 | 0.2
CCCCCCCCCCCCCNc1nc(NCCCCCCCC)nc(NCCN2CCN(C)CC2)n1 [Compound N8N13D5] | 0.0 | 0.0
